Source: publication PMC8121435, “Cork-in-bottle mechanism of inhibitor binding to mammalian complex I” (Science Advances, 2021)

Columns and labels:
[1] = molecular target: T1, complex I in bacterial membranes (Paracoccus denitrificans, UniProt P29916+P29918+P29920); experiment: NADH oxidation in P. denitrificans bacterial membranes; format: biochemical; conditions: P. denitrificans membranes 20 μg ml−1
T1 construct: Complex I was purified from P. denitrificans strain Pd1222; endogenous in cells; host or cells: P. denitrificans strain Pd1222
Experimental: (§1) All catalytic activity assays were conducted at 32°C in 96-well plates using a Molecular Devices Spectramax 384 plus plate reader. Catalysis was initiated by addition of 200 μM NADH and monitored at 340 and 380 nm (ε340–380 = 4.81 mM^−1 cm^−1). Linear rates were measured for all assays, inhibitors were added from dimethyl sulfoxide stock solutions as required, and inhibitor-insensitive rates (using either 1 μM piericidin A or 1.4 μM IACS-2858) were subtracted from each measured rate. Membrane samples were prepared as described previously ([17], [20], [59], [60]), diluted to 20 μg ml^−1 in 10 mM tris-SO4 (pH 7.5) and 250 mM sucrose, and supplemented with 3 μM horse heart cytochrome c (except for P. denitrificans, for which the activity is unaffected by the addition). Mouse, bovine, and yeast (Y. lipolytica) complex I were purified as described previously ([17], [20], [59]); diluted to 0.5 nM in 20 mM tris-HCl (pH 7.5), 0.15% asolectin, and 0.15% CHAPS; and assayed using either 200 μM dQ or 200 μM ubiquinone-1 (Sigma-Aldrich). Complex I was purified from P. denitrificans strain Pd1222 ([61]) and provided by O. D. Jarman (MRC Mitochondrial Biology Unit, University of Cambridge); it was assayed likewise but in 10 mM MES-HCl (pH 6.5), 25 mM NaCl, and 2 mM CaCl2. […]

[2] = molecular target: T2, complex I in mitochondrial membranes (Bos taurus, UniProt P03887+P17694+P42026); experiment: NADH oxidation in bovine mitochondrial membranes; format: biochemical; conditions: B. taurus membranes 20 μg ml−1; ± SE
T2 construct: Complex I from bovine heart were prepared; from tissue; host or cells: bovine heart mitochondria
Experimental: as §1

[3] = molecular target: T3, P. denitrificans complex I (Paracoccus denitrificans, UniProt P29916+P29918+P29920); experiment: NADH:decylubiquinone oxidoreduction by purified P. denitrificans complex I; format: biochemical; conditions: dQ, pH 6.5
T3 construct: Complex I was purified from P. denitrificans strain Pd1222; endogenous in cells; host or cells: P. denitrificans strain Pd1222
Experimental: as §1

[4] = molecular target: T4, yeast (Y. lipolytica) complex I (Yarrowia lipolytica, UniProt Q9B6E8+Q9UUT7+Q9UUU1); experiment: NADH:decylubiquinone oxidoreduction by purified Y. lipolytica complex I; format: biochemical
T4 sequence (Q9B6E8 1-341): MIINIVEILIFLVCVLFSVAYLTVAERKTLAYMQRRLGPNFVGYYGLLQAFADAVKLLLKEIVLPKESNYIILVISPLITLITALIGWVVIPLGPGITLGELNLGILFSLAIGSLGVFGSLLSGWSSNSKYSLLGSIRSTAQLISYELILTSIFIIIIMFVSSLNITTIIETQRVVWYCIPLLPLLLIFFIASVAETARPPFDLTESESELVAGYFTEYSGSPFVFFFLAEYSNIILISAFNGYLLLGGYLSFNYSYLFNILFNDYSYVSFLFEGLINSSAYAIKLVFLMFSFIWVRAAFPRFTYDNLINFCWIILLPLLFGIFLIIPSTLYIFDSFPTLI
T4 sequence (Q9UUU1 22-466): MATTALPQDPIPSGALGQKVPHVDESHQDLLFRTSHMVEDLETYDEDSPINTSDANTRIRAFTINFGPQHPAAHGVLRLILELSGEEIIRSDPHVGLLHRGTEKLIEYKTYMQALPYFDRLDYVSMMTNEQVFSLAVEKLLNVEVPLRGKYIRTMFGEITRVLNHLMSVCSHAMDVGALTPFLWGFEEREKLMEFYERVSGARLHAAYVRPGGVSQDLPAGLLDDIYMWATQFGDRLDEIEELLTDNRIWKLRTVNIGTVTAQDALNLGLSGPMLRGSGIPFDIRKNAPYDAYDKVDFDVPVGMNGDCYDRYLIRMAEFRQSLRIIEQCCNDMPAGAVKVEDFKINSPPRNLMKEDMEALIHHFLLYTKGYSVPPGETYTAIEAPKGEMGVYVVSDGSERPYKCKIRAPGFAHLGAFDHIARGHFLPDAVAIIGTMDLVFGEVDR
T4 sequence (Q9UUT7 28-210): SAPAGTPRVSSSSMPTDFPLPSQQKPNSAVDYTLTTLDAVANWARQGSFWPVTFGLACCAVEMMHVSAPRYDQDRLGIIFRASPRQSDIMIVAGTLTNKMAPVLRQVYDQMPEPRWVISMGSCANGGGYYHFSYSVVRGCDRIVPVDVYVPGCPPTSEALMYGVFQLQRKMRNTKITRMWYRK
Experimental: as §1

[5] = tested on: human cell line models and representative cell lines from mammalian species; set-up: method as in PMID 29892070; conditions: mouse, monkey, dog and rat cell lines; cited from earlier work
complex I in bovine SMPs [6] = molecular target: T5, complex I in bovine SMPs (Bos taurus, UniProt P03887+P17694+P42026); experiment: Reverse electron transport (succinate oxidation-driven NAD+ reduction) in bovine heart submitochondrial particles; format: biochemical
T5 construct: Complex I from bovine heart were prepared; from tissue; host or cells: bovine heart mitochondria
Experimental: (§2) All catalytic activity assays were conducted at 32°C in 96-well plates using a Molecular Devices Spectramax 384 plus plate reader. Catalysis was initiated by addition of 200 μM NADH and monitored at 340 and 380 nm (ε340–380 = 4.81 mM^−1 cm^−1). Linear rates were measured for all assays, inhibitors were added from dimethyl sulfoxide stock solutions as required, and inhibitor-insensitive rates (using either 1 μM piericidin A or 1.4 μM IACS-2858) were subtracted from each measured rate. Membrane samples were prepared as described previously ([17], [20], [59], [60]), diluted to 20 μg ml^−1 in 10 mM tris-SO4 (pH 7.5) and 250 mM sucrose, and supplemented with 3 μM horse heart cytochrome c (except for P. denitrificans, for which the activity is unaffected by the addition). Mouse, bovine, and yeast (Y. lipolytica) complex I were purified as described previously ([17], [20], [59]); diluted to 0.5 nM in 20 mM tris-HCl (pH 7.5), 0.15% asolectin, and 0.15% CHAPS; and assayed using either 200 μM dQ or 200 μM ubiquinone-1 (Sigma-Aldrich). Complex I was purified from P. denitrificans strain Pd1222 ([61]) and provided by O. D. Jarman (MRC Mitochondrial Biology Unit, University of Cambridge); it was assayed likewise but in 10 mM MES-HCl (pH 6.5), 25 mM NaCl, and 2 mM CaCl2. Bovine SMPs were prepared as described previously ([61]) and diluted to 20 μg ml^−1 in 10 mM tris-SO4 (pH 7.5) and 250 mM sucrose for FET and RET assays. The RET assay was initiated using 1 mM NAD^+, 1 mM ATP, 10 mM succinate, 1 mM cyanide, and 2 mM MgSO4, in the absence of NADH. AOX from Trypanosoma brucei brucei was prepared as described previously ([23]). Complex I proteoliposomes were assayed using 10 mM Mops-KOH (pH 7.5), 50 mM KCl, and AOX (10 μg ml^−1).

[7] = molecular target: T6, complex I in mitochondrial membranes (Yarrowia lipolytica, UniProt Q9B6E8+Q9UUT7+Q9UUU1); experiment: NADH oxidation in Y. lipolytica mitochondrial membranes; format: biochemical
T6 sequence (Q9B6E8 1-341): T4 sequence (Q9B6E8 1-341)
T6 sequence (Q9UUU1 22-466): T4 sequence (Q9UUU1 22-466)
T6 sequence (Q9UUT7 28-210): T4 sequence (Q9UUT7 28-210)
Experimental: as §1

[8] = molecular target: T7, complex I in mitochondrial membranes (Mus musculus, UniProt P03888+Q91WD5+Q9DC70); experiment: NADH oxidation in mouse mitochondrial membranes; format: biochemical; conditions: M. musculus membranes 20 μg ml−1; ± SE
T7 construct: from tissue; host or cells: mouse (C57BL/6) heart mitochondria
Experimental: as §1

bovine complex I = molecular target: T8, bovine complex I (Bos taurus, UniProt P03887+P17694+P42026); experiment: NADH:decylubiquinone oxidoreduction by purified bovine complex I; format: biochemical; conditions: purified B. taurus complex I, dQ; ± SE
T8 construct: Complex I from bovine heart were prepared; from tissue; host or cells: bovine heart mitochondria
Experimental: as §1

mouse complex I = molecular target: T9, mouse complex I (Mus musculus, UniProt P03888+Q91WD5+Q9DC70); experiment: NADH:decylubiquinone oxidoreduction by purified mouse complex I; format: biochemical
T9 construct: from tissue; host or cells: mouse (C57BL/6) heart mitochondria
Experimental: as §2

H292 cells = tested on: H292 cells; set-up: method as in PMID 29892070; conditions: Leu55 ND1 mutation to Phe in H292 cells; cited from earlier work
complex I in bovine SMPs [9] = molecular target: T5, complex I in bovine SMPs; experiment: Forward electron transport (NADH oxidation) in bovine heart submitochondrial particles; format: biochemical; conditions: NADH oxidation rate, ± SE
Experimental: as §1

human DHODH = tested on: human DHODH; set-up: method as in PMID 15044733, PMID 9313772; conditions: His-to-Ala mutation of the π-stacking partner; cited from earlier work

Structure (SMILES)	IC50 [1] [µM]	IC50 [2] [µM]	IC50 [3] [µM]	IC50 [4] [µM]	variation in IC50 across cell lines [5]	IC50 (complex I in bovine SMPs [6]; bovine SMPs, succinate oxidation-driven NAD+ reduction rate, ± SE) [µM]	inhibition of RET favoured over FET (complex I in bovine SMPs [6]; bovine heart SMPs, RET versus FET)	IC50 [7] [µM]	IC50 [8] [µM]	IC50 (bovine complex I) [µM]	higher IC50 value than IACS-2858 (mouse complex I) [fold]	IC50 (mouse complex I; purified mouse complex I ~0.5 nM, 200 μM dQ, 200 μM NADH, 32°C, Hill slope constrained to −1, ± SE) [µM]	loss of sensitivity (H292 cells)	IC50 (complex I in bovine SMPs [9]) [µM]	reduction of sensitivity (human DHODH)
Cc1nc(-c2nc(-c3ccc(OC(F)(F)F)cc3)no2)nn1Cc1cccc(N2CCC(S(C)(=O)=O)CC2)c1 [IACS-010759]	~1600	0.113 ± 0.004	~22000	6.3 ± 0.8	up to 230 fold	0.0123 ± 0.0006	more than 25 fold	~170	0.0069 ± 0.0004	0.739 ± 0.065	17	0.0479	up to 70 fold	0.325 ± 0.025	
Cc1c(-c2ccc(-c3ccccc3F)cc2)nc2ccc(F)cc2c1C(=O)O [brequinar]															more than 100 fold
